Results taken from patent US8563588B2, “Imidazolone derivatives, method for the preparation thereof and biological applications” (Universite de Rennes 1, priority 2007, dated 2013).

Target: Rat recombinant DYRK1A (Rattus norvegicus, UniProt Q63470)
Test: Assaying of the kinase activity of DYRK1A (33P-ATP, myelin basic protein, P81 filter);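 also: GST fusion rat DYRK1A made in E. coli, scintillation counting of label bound to substrate, activity as percent of the inhibitor-free maximum after blank subtraction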
Format: biochemical
Conditions: 15 μM ATP, 30° C., 30 min; read-out: IC50 DYRK1A

IC50 [µM]	SMILES
3.2	CN1C(=O)/C(=C/c2ccc3c(c2)OCO3)N=C1c1ccccc1 [NL39, (5Z)-5-(1,3-Benzodioxol-5-ylmethylene)-3-methyl-2-phenyl-3,5-dihydro-4H-imidazol-4-one]
1.8	CCCCNC1=N/C(=C\c2ccc3c(c2)OCO3)C(=O)N1C [FCJR457]
3.4	CN1C(=O)/C(=C/c2ccc3c(c2)OCO3)N=C1NC(=O)C(C)(C)C [IA31]
0.5	O=C1NC(SCC2CC2)=N/C1=C\c1ccc2c(c1)OCO2 [ST130]
6.8	CSC1=N/C(=C\c2ccc3c(c2)OCO3)C(=O)N1C [ST099]
> 10	CCCCN1C(=O)/C(=C/c2ccc3c(c2)OCO3)N=C1SCC [SB05]
2.6	CCSC1=N/C(=C\c2ccc(O)c(OC)c2)C(=O)N1 [ST240]
1.4	CCSC1=N/C(=C\c2ccc3c(c2)OCO3)C(=O)N1C [SB26, (5Z)-5-(1,3-benzodioxol-5-ylmethylene)-3-methyl-2-(ethylthio)-3,5-dihydro-4H-imidazol-4-one]
> 10	CCCCN1C(=O)/C(=C/c2ccc3c(c2)OCO3)N=C1NCCC [JR442]

The next lines start with the compound.

SMILES	IC50 [µM]
O=C1NC(=S)N/C1=C\c1ccc(O)c(O)c1 [ST227]	66
CCSC1=N/C(=C\c2ccc(O)c(OC)c2)C(=O)N1C [ST170]	> 10
COc1cc(/C=C2\N=C(NC(C)C)N(C)C2=O)cc(OC)c1OC [FC104b]	> 10
O=C1NC(NCC2CC2)=N/C1=C\c1ccc2c(c1)OCO2 [FC114]	0.5
CN1C(=O)/C(=C/c2ccc3c(c2)OCO3)N=C1c1ccc(O)cc1 [NL96]	0.43
CCCCN1C(=O)/C(=C/c2ccc3c(c2)OCO3)N=C1SCc1ccccc1 [SB10]	> 10
